Source: patent US7560473B2 (Institute of Pharmacology and Toxicology Academy of …, priority 2001, dated 2009)

Columns and labels:
[1] = tested on: outward potassium currents in smooth muscle cells derived from intrapulmonary arteries; assay: Whole cell recording of outward potassium currents in intrapulmonary arterial SMCs and glibenclamide antagonism; type: cell-based, Wistar rats
Description: Effects of Compound 1 on Potassium Currents in Isolated Intrapulmonary arterial SMCs and Glibenclamide Antagonism
The outward potassium currents were recorded in smooth muscle cells derived from intrapulmonary arteries of normotensive rats. Cells were sealed, clamped at −70 mV and depolarized to +50 mV at an increasing step of 10 mV with 100 ms duration. After application of compound 1 at the concentration of 10 μmol L^−1, the amplitude of the currents in 5/8 cells was increased to 115.4±2.8% compared with control recorded before compound application (P<0.01 n=5). While in the presence of both compound 1 and glibenclamide at the concentration of 10 μmol L^−1 and 30 μmol L^−1 respectively, the amplitude of the outward potassium currents in 7/7 cells was detected to be 83.1±8.3% of control, which was decreased compared with the presence of compound 1 only (P<0.01 n=7).
2. Preparation of smooth muscle cells from intrapulmonary arteries: Male Wistar rats were killed by decapitation. The intrapulmonary arteries were isolated and moved quickly into physiological salt solutions (PSS, 4° C.) Then the arteries were cut longitudinally and cut into small segments after scraping off the endothelium gently with a cotton swab. The fragments were then incubated at 37° C. in Ca^2+-free PSS for 20 to 30 minutes. […]

jirds = assay: Pan-cerebral ischemia-reperfusion injury in jirds (BCAO); type: in vivo; conditions: 7 days, dosage-dependent
Description: Biological Activity Experiment 7 The Protective Effects of compound 1 on Pan-Cerebral Ischemia-Reperfusion Injury in Jirds
The methods of biological activity experiment were carried out as follows: equal amounts of male and female jirds (60-70 g) were subjected to bilateral cervical aorta occlusion (BCAO) under narcotism. The drugs or equal amounts of physiological saline solution were injected peritoneally at 30 min before occlusion. After the blood flow in the bilateral cervical aorta was blocked for 5 min, reperfusion was restored and the drug was administered once a day for 7 days. During the BCAO, the body temperature was maintained at 37° C. In the control group, the cervical aorta was only exposed, while not blocked for blood flow. The animals were divided in 6 groups randomly: control group, ischemic group and compound-treated group (0.5, 1.0, 2.0 and 4.0 mg.kg^−1, ip). 7 days after BCAO, the animals were deeply anesthetized by injecting peritoneally 80 mg.kg^−1 pentobarbitol sodium, and perfused with 50 mL physiological saline solution and 4% paraformaldehyde through heart. The brain was dissected, immersed in 4% paraformaldehyde for 24 h, dehydrated, cleared, embedded with paraffin, sectioned and stained with HE. TUNEL staining was employed to detect the nerve apoptosis.

cordical nerve = assay: Cordical nerve apoptosis induced by low level oxygen and glucose; type: cell-based, Wistar rats; conditions: for Apoptosis percentage: low level oxygen and glucose 16 h, flow cytometer, control 2.3 ± 1.2, low oxygen and glucose alone 23.8 ± 7.4, means ± SD
Description: Biological Activity Experiment 9 The Inhibition Effects of Compound 1 on the Cordical Nerve Apoptosis Induced by Low Level Oxygen and Glucose
The methods of biological activity experiment 9 were carried out as follows: The cordical nerve were prepared from 12-hour old Wistar rats and cultured. See G. Y. Yang, A. L. Bentz. Reperfusion-induced injure to the blood-brain after middle cerebral artery occlusion in rats. Stroke, 1994,25:1658-1665. Serum-free DMEM medium was applied 12 days later. The preparation was incubated in low oxygen tank (95% N2+5% CO2) for 8, 16 and 24 h respectively, and then restored oxygen to normal level for another 24 h. The experiments on five groups were as follows: the control group was cultured for 14 days with normal medium; low level oxygen and glucose treated group was cultured with normal medium for 12 days, then with serum-free medium containing low level oxygen and glucose for 16 h and with normal oxygen level for another 24 h; compound 1 treated group was cultured in serum-free medium containing low level oxygen and glucose for 16 h and with normal oxygen level for another 24 h, then added respectively different concentrations of compound 1 (0.1, 1.0 and 10 umol.L^−1). As to the method for detecting apoptosis by the electron microscopy and flow cytometer, refer to C.Du, R.Hu, C. A. Csernansky, et al. Very delayed infarction after mild focal cerebral ischemia: a role for apoptosis. J.Cereb.Flow Metab., 1996,16:195-201; M.Chopp, Y.Li, N.Jiang, et al. Antibodies against adhesion molecules reduced apoptosis after transient middle artery occlusion in rat brain. J.Cereb.Flow Metab., 1996,16:578-584.

## CC(C)NC(C)(C)C(C)C [compound 1, N-(1-methylethyl)-2,3-dimethyl-2-butylamine]
[1]; compound 1 10 μmol L^−1, 5/8 cells, n=5
  amplitude of the outward potassium currents compared with control: 115.4±2.8%
[1]; compound 1 10 μmol L^−1 in the presence of glibenclamide 30 μmol L^−1, 7/7 cells, n=7
  amplitude of the outward potassium currents, of control: 83.1±8.3%
jirds; 0.5-4.0 mg.kg^−1.d^−1 ip
  number of dead pyramidal nerve of hippocampal CA1 region (HE staining): significantly decreased the number of dead pyramidal nerve
jirds; 0.5-4.0 mg.kg^−1 ip
  apoptosis of pyramidal nerve of hippocampal CA1 region (TUNEL): significantly alleviate the apoptosis
Cordical nerve; 0.1 umol · L^−1
  Apoptosis percentage: 17.6 ± 5.8%
Cordical nerve; 1 umol · L^−1
  Apoptosis percentage: 13.9 ± 5.2 %
Cordical nerve; 10 umol · L^−1
  Apoptosis percentage: 10.8 ± 4.1 %
Cordical nerve; 10 umol.L^−1, low level oxygen and glucose
  apoptotic changes of cordical nerve cells under electron microscopy (in words): the above mentioned changes were hardly observed
